# Test results from paper PMC2994747, “Molecular Characterization of c-Abl/c-Src Kinase Inhibitors Targeted against Murine Tumour Progenitor Cells that Express Stem Cell Markers” (PLoS ONE, 2010).
# Like-named read-outs stand apart in the source and are kept apart here.
# Assays:
# GammaD12 [1] = assay: Cell cycle analysis by flow cytometry; assay type: cell-based, mouse; details: IC50 concentration, 96 h
# Description: (§1) CycleTEST™ PLUS DNA Reagent Kit (Becton Dickinson GmbH, Heidelberg, Germany) for cell cycle analysis was used, according to the instructions of the manufacturer. Briefly, the cells were harvested with trypsin, washed with PBS, and resuspended in CycleTEST Buffer. The cells were centrifuged and resuspended in solution A. After incubation for 10 min at room temperature, solution B was added and incubated. After adding solution C, the samples were incubated at 4°C protected from light. The samples were stored on ice and protected from light until analysis by FACScan flow cytometer (Becton Dickinson GmbH, Heidelberg, Germany).
# BetaD5 [2] = assay: Cell cycle analysis by flow cytometry; assay type: cell-based, mouse; details: IC50 concentration, 96 h
# Description: as §1
# A2C12 [3] = assay: Cell cycle analysis by flow cytometry; assay type: cell-based, mouse; details: IC50 concentration, 96 h
# Description: as §1
# GammaA3 [4] = assay: Cell cycle analysis by flow cytometry; assay type: cell-based, mouse; details: IC50 concentration; for Cells in G1 phase / Cells in G2 phase / Cells in S phase: 96 h
# Description: as §1
# CaCo2 [5] = assay: Cell cycle analysis by flow cytometry; assay type: cell-based, human; details: IC50 concentration, 96 h
# Description: as §1
# HepG2 [6] = assay: Cell cycle analysis by flow cytometry; assay type: cell-based, human; details: IC50 concentration, 96 h
# Description: as §1
# A549 [7] = assay: Cell cycle analysis by flow cytometry; assay type: cell-based, human; details: IC50 concentration, 96 h
# Description: as §1
# GammaD12 [8] = assay: MTS cell viability assay; assay type: cell-based, mouse; details: MTS
# Description: (§2) Three human and eleven murine cancer cell lines were used. The human NSCLC cell line A549 (ACC 107) and the human colorectal carcinoma cell line CaCo2 (ACC 169) were obtained from Deutsche Sammlung von Mikroorganismen und Zellkulturen (DSMZ, Braunschweig, Germany). The human hepatocellular carcinoma cell line HepG2 (HB-8065) was obtained from American Type Culture Collection (Manassas, VA, USA). The 11 murine NSCLC cell lines were established as described recently. Cells were grown in monolayer cultures in DMEM containing 10% foetal calf serum, 4 mmol/l L-glutamine and 2% Penicillin/Streptomycin at 37°C in a humidified atmosphere of 95% air and 5% CO2.
# (§3) Cell culture viability was monitored by CellTiter96® AQueous One Solution Cell Proliferation Assay (Promega GmbH, Mannheim, Germany). The cells were seeded in triplicates in 96-well microtitre plates and treated with the dual kinase inhibitors or vehicle (0.2% DMSO). After 24 h or 96 h of treatment the MTS tetrazolium reagent was added to the cells and incubated for 1 h. Absorbance at 490 nm was assayed with a Victor3 Wallac 1420 Multilabel counter (PerkinElmer, Waltham, MA, USA).
# BetaD5 [9] = assay: MTS cell viability assay; assay type: cell-based, mouse
# Description: as §2, §3
# A2C12 [10] = assay: MTS cell viability assay; assay type: cell-based, mouse
# Description: as §2, §3
# GammaA3 [11] = assay: MTS cell viability assay; assay type: cell-based, mouse
# Description: as §2, §3
# CaCo2 [12] = assay: MTS cell viability assay; assay type: cell-based, human
# Description: as §2, §3
# HepG2 [13] = assay: MTS cell viability assay; assay type: cell-based, human
# Description: as §2, §3
# A549 [14] = assay: MTS cell viability assay; assay type: cell-based, human
# Description: as §2, §3
# [15] = 24 h, read-out: Calculated IC50 after single treatment for 24 h
# [16] = 96 h, read-out: Calculated IC50 after daily treatment for 96 h
# [17] = daily treatment 96 h, vs DMSO 0.2%
SMILES,Cells in G1 phase (GammaD12 [1]) [%],Cells in G2 phase (GammaD12 [1]) [%],Cells in S phase (GammaD12 [1]) [%],Cells in G1 phase (BetaD5 [2]) [%],Cells in G2 phase (BetaD5 [2]) [%],Cells in S phase (BetaD5 [2]) [%],Cells in G1 phase (A2C12 [3]) [%],Cells in G2 phase (A2C12 [3]) [%],Cells in S phase (A2C12 [3]) [%],Cells in G1 phase (A549 [7]) [%],Cells in G2 phase (A549 [7]) [%],Cells in S phase (A549 [7]) [%],IC50 (GammaD12 [8]; [15]) [µM],IC50 (GammaD12 [8]; [16]) [µM],IC50 (BetaD5 [9]; [15]) [µM],IC50 (BetaD5 [9]; [16]) [µM],IC50 (A2C12 [10]; [15]) [µM],IC50 (A2C12 [10]; [16]) [µM],IC50 (GammaA3 [11]; [15]) [µM],IC50 (GammaA3 [11]; [16]) [µM],other results
CSc1nc(NCc2ccccc2)c2cnn(CC(Cl)c3ccccc3)c2n1 (stereo not shown) [Si34],36.2,7.9,55.9,65.8,23.1,11.1,74.5,9.7,15.7,67.3,5.6,27.1,23.2 ± 2.5,8.8 ± 1.4,37 ± 2.3,9.6 ± 0.2,32.8 ± 4.8,8.3 ± 0.3,25.2 ± 3.1,10.7 ± 0.6,Cells in G1 phase (GammaA3 [4]): 68.6%; Cells in G2 phase (GammaA3 [4]): 16.8%; Cells in S phase (GammaA3 [4]): 14.6%; Cells in G1 phase (CaCo2 [5]): 52.9%; Cells in G2 phase (CaCo2 [5]): 10.5%; Cells in S phase (CaCo2 [5]): 36.7%; Cells in G1 phase (HepG2 [6]): 52%; Cells in G2 phase (HepG2 [6]): 13.2%; Cells in S phase (HepG2 [6]): 34.7%; IC50 (CaCo2 [12]; [15]): 58.2 ± 4.2 µM; IC50 (CaCo2 [12]; [16]): 5.9 ± 0.1 µM; IC50 (HepG2 [13]; [15]): 58.5 ± 3 µM; IC50 (HepG2 [13]; [16]): 26.7 ± 4.8 µM; IC50 (A549 [14]; [15]): 69.5 ± 27.7 µM; IC50 (A549 [14]; [16]): 10.4 ± 0.4 µM
CSc1nc(NCc2ccccc2)c2cnn(CC(Cl)c3ccc(F)cc3)c2n1 (stereo not shown) [Si65],33,8.7,58.4,58.4,24.7,16.9,73.4,10.4,16.2,67.2,6.3,26.6,21 ± 1,7.1 ± 0.6,22.6 ± 1.9,10.6 ± 0.1,25.9 ± 4.3,8.6 ± 1.3,31.9 ± 1.6,9.9 ± 1.4,Cells in G1 phase (GammaA3 [4]): 68%; Cells in G2 phase (GammaA3 [4]): 17.3%; Cells in S phase (GammaA3 [4]): 14.6%; Cells in G1 phase (HepG2 [6]): 62.7%; Cells in G2 phase (HepG2 [6]): 8.5%; Cells in S phase (HepG2 [6]): 28.1%; IC50 (CaCo2 [12]; [15]): 40.3 ± 0.9 µM; IC50 (CaCo2 [12]; [16]): 5.7 ± 0.4 µM; IC50 (HepG2 [13]; [15]): 40.3 ± 0.9 µM; IC50 (HepG2 [13]; [16]): 9.1 ± 1.7 µM; IC50 (A549 [14]; [15]): 22.7 ± 0.6 µM; IC50 (A549 [14]; [16]): 8.2 ± 0.5 µM
CSc1nc(NCc2ccccc2)c2cnn(CC(Cl)c3ccc(Cl)cc3)c2n1 (stereo not shown) [Si70],43.7,7.7,48.7,56.6,25.7,17.7,63.3,10.1,26.6,77.3,4.1,18.6,21.6 ± 1.6,7.9 ± 3.4,31 ± 5.1,11 ± 0.3,68.5 ± 16.8,9.2 ± 0.3,40.7 ± 6.2,13.5 ± 1.1,Cells in G1 phase (GammaA3 [4]): 89%; Cells in G2 phase (GammaA3 [4]): 8.2%; Cells in S phase (GammaA3 [4]): 2.8%; Decrease in the S-phase compared to the vehicle treatment (GammaA3 [4]; [17]): up to 91%; Increase in G0/G1 compared to the vehicle treatment (GammaA3 [4]; [17]): up to 92%; Cells in G1 phase (CaCo2 [5]): 65.9%; Cells in G2 phase (CaCo2 [5]): 6.8%; Cells in S phase (CaCo2 [5]): 27.3%; IC50 (CaCo2 [12]; [15]): 82.1 ± 5.3 µM; IC50 (CaCo2 [12]; [16]): 7.6 ± 0.3 µM; IC50 (HepG2 [13]; [15]): 82.1 ± 5.3 µM; IC50 (HepG2 [13]; [16]): > 100 µM; IC50 (A549 [14]; [15]): 96 ± 35.1 µM; IC50 (A549 [14]; [16]): 10.2 ± 0.5 µM
CSc1nc(NCc2ccccc2)c2cnn(CC(Br)c3ccccc3)c2n1 (stereo not shown) [Si81],33.3,8.8,57.9,61.9,22,16.1,66.7,10.7,22.6,62.8,6.3,30.9,17.4 ± 2.6,14.1 ± 0.2,20.6 ± 4,19.5 ± 3.1,30.8 ± 2.5,12.1 ± 2.1,26.8 ± 1.5,> 20,Cells in G1 phase (CaCo2 [5]): 58.7%; Cells in G2 phase (CaCo2 [5]): 6.9%; Cells in S phase (CaCo2 [5]): 34.3%; Cells in G1 phase (HepG2 [6]): 58.8%; Cells in G2 phase (HepG2 [6]): 9.5%; Cells in S phase (HepG2 [6]): 31.7%; IC50 (CaCo2 [12]; [15]): 72.9 ± 6.4 µM; IC50 (CaCo2 [12]; [16]): 7.5 ± 0.2 µM; IC50 (HepG2 [13]; [15]): 72.9 ± 6.4 µM; IC50 (HepG2 [13]; [16]): 22.6 ± 4.3 µM; IC50 (A549 [14]; [15]): > 100 µM; IC50 (A549 [14]; [16]): 11.2 ± 1 µM
